Positions of bridges follow the written chain, without caps; N, C: chain ends. Non-standard residues stand in square brackets, D forms with d. Residues, ends and D or L forms follow the SMILES beside them. Hyp = O=C(O)[C@@H]1C[C@@H](O)CN1; Nle = CCCC[C@H](N)C(=O)O; Orn = NCCC[C@H](N)C(=O)O

For data set [1], the system named is mouse oxaliplatin-induced acute chemotherapy pain model. The data set can be described thus: Mouse oxaliplatin chemotherapy pain model, different doses (Example 7). It counts as in vivo. The note with it: 2 mg/kg s.c. (AJ003; AJ003-36 medium dose). The method, then: Oxaliplatin was dissolved in 5% glucose solution to a concentration of 1 mg/mL. For model induction, each male C57 mouse (Hangzhou Ziyuan Experimental Animal Technology Co., Ltd.) received a single intraperitoneal injection of oxaliplatin at 10 mg/kg. Mice in the negative control or blank control group received 5% glucose solution. Approximately one week after model induction, mechanical pain thresholds of the mice were measured three times per mouse, and the average value was calculated. Mice were then randomly assigned to groups based on their pain thresholds. Drug administration was carried out according to the dosing schedule shown in Table 6, with a single dose per mouse. Mechanical pain thresholds were measured at 0.5, 1, 2, 4, 6, and 8 h post-dose. […] Table 6 Dosing Scheme for Oxaliplatin Chemotherapy Pain Model

The test system of a further data set is rat CCI model. Description: Rat CCI (chronic constriction injury) model (Example 9). It counts as in vivo. Particulars: 1 mg/kg s.c. (AJ003; AJ003-36 medium dose). An excerpt: Neuropathic pain has many types, and animal models can simulate clinical neuropathic pain. Common SD rat sciatic nerve neuropathic pain models include CCI (Chronic Constriction Injury), SNI (Spared Nerve Injury), SNL (Spinal Nerve Ligation), and CCD (using stainless steel wire through the intervertebral foramen to fix and compress the dorsal root ganglion). Among them, the CCI model is widely used to study neuropathic pain, providing a basis for further research on mechanisms and strategies for nerve injury repair (Wen Xiaojun, Medical Information, Jan. 2018, Vol. 31, No.1). In this example, the CCI model was employed.
Except for the control group, the remaining SD rats were anesthetized via intraperitoneal injection of 10% chloral hydrate saline solution at a dose of 0.3 mL per 100 g body weight, and surgical modeling was performed. The right hind limb skin was carefully incised, muscles were separated, and the sciatic nerve was ligated three times using 4-0 surgical silk, spaced 1 mm apart. Muscles and skin were sutured, and antibiotics were applied to the wound to prevent infection. […] Approximately 10 days post-surgery, plantar pain thresholds were measured three times for each rat, and the average value was calculated. Rats were randomly assigned to groups based on pain thresholds. Drug administration was performed according to Table 8, and plantar pain thresholds were measured at 2 h, 4 h, 6 h, and 8 h after administration.

Data set [2] in a line: In vitro plasma stability and predicted half-life (HPLC main peak area, Example 3). It counts as in vitro ADME. Particulars: human plasma (EDTA anticoagulant), 37°C, sampled up to 24 h, predicted half-life calculated with Winolin. The method, then: The modified peptides in this study were designed with non-natural amino acid substitutions at certain non-essential positions to enhance peptide stability and improve druggability. Peptides were dissolved in deionized water to 2 mg/mL, then diluted with acetonitrile to 1 mg/mL and filtered through an organic membrane. 200 µL of the filtrate was transferred to an LC vial as the peptide control. 300 µL of human plasma (comprising EDTA as anticoagulant, Nanjing Senbeijia Biotechnology Co., Ltd., Lot No. SBJ-P-HU011-100 mL) was mixed with 300 µL acetonitrile, centrifuged at 4°C and 12,000 rpm for 5 minutes. The supernatant was filtered through an organic membrane, and 200 µL of the filtrate was transferred to an LC vial as the plasma blank control. For peptide samples, 10 mg of peptide was weighed mixed with 5 mL of human plasma and vortexed thoroughly. 300 µL of peptide-containing plasma was mixed with 300 µL acetonitrile, centrifuged at 4°C and 12,000 rpm for 5 minutes, and the supernatant was filtered through an organic membrane. 200 µL of the filtrate was transferred to an LC vial as the 0 min sample. Peptide-containing plasma was incubated in a 37°C water bath, and samples at other time points were collected using the same procedure as the 0 min sample. For peptides AJ003 and AJ003-1, the sampling time points were 0 min, 5 min, 10 min, 20 min, 30 min, 1 h, 2 h, 4 h, 6 h, 10 h, 12 h, and 24 h. For modified peptides AJ003-34, AJ003-35, AJ003-36, AJ003-37, AJ003-38, AJ003-39, AJ003-40, AJ003-41, and AJ003-42, the time points were 0 min, 10 min, 30 min, 1 h, 4 h, 6 h, 10 h, 12 h, and 24 h. All peptide sample series were analyzed by HPLC, recording the changes in main peak areas over plasma incubation time. Predicted in vitro half-lives were calculated using the pharmacokinetic software Winolin. Due to the presence of tautomers, AJ003 peak areas were difficult to integrate accurately over time. AJ003-1 is an analog of AJ003 in which the threonine at position 5 is substituted with D-threonine; its sequence differs from AJ003 by only one amino acid configuration. […] The in vitro plasma half-lives of modified peptides AJ003-34, AJ003-35, AJ003-36, AJ003-37, AJ003-38, AJ003-39, AJ003-40, AJ003-41, and AJ003-42 were 61.9 h, 45.3 h, 65.3 h, 71.0 h, 26.7 h, 43.0 h, 84.0 h, 30.0 h, and 61.4 h, respectively.

For the compound `CC(C)C[C@H](NC(=O)[C@@H](NC(=O)[C@H]1CSSC[C@H](NC(=O)[C@H](CO)NC(=O)CN)C(=O)N[C@@H](CO)C(=O)N[C@@H]([C@@H](C)O)C(=O)N2CCC[C@H]2C(=O)N2CCC[C@H]2C(=O)N[C@@H](CO)C(=O)N1)C(C)C)C(=O)N[C@@H](Cc1ccc(O)cc1)C(=O)N[C@@H](CO)C(=O)O` [AJ003, GSCSTPPS-(D-Cys)-VLYS (disulfide bond between positions 3 and 9)] (H-GSCSTPPS[dC]VLYS-OH; disulfide 3-9), the “analgesic activity compared with the model group (mechanical pain threshold)” value in data set [1] (single dose, 0.5, 1, 2 and 4 h post-dose) is listed as “significant analgesic activity”; in data set [1] (single dose, 6 h post-dose), “no significant effect”; in data set [1] (single dose, 8 h post-dose), “no significant effect”; with rat CCI model (Day 1 of dosing, 2 h and 4 h) it was “significant analgesic activity”; in the data set with rat CCI model (Day 1 of dosing, 6 h), “no significant difference”; with rat CCI model (Day 1 of dosing, 8 h), “not significantly different”. Besides, the “analgesic activity compared with the model group (mechanical pain threshold)” value in the data set with rat CCI model (Day 4 of dosing, 2 h and 4 h) is on record as “significant analgesic activity”; in the data set on rat CCI model (Day 4 of dosing, 6 h and 8 h), “no longer significant”; in the data set with rat CCI model (Day 7 of dosing, 2 h and 4 h) it was “significant analgesic activity”; with rat CCI model (Day 7 of dosing, 6 h), “no significant effect”; in the data set with rat CCI model (Day 7 of dosing, 8 h) it was “not significant”; with rat CCI model (Day 10 of dosing, 2 h and 4 h) it was “significant analgesic activity”. For the same compound, the “analgesic activity compared with the model group (mechanical pain threshold)” value is recorded as “no significant effect” with rat CCI model (Day 10 of dosing, 6 h); “not significant” in the data set on rat CCI model (Day 10 of dosing, 8 h); “significant analgesic activity” in the data set with rat CCI model (Day 14 of dosing, 2 h and 4 h); “no significant effect” in the data set on rat CCI model (Day 14 of dosing, 6 h); “not significant” with rat CCI model (Day 14 of dosing, 8 h).

For the compound `CCCC[C@H](NC(=O)[C@@H](NC(=O)[C@H]1CSSC[C@H](NC(=O)[C@H](CO)NC(=O)CN)C(=O)N[C@@H](CO)C(=O)N[C@H]([C@H](C)O)C(=O)N2C[C@H](O)C[C@H]2C(=O)N2C[C@H](O)C[C@H]2C(=O)N[C@@H](CO)C(=O)N1)C(C)C)C(=O)N[C@@H](Cc1c[nH]c2ccccc12)C(=O)N[C@@H](CCCN)C(N)=O` [AJ003-40, GSCS-(D-Thr)-Hyp-Hyp-S-(D-Cys)-V-Nle-W-Orn-NH2 (3,9 disulfide bond)] (H-GSCS[dT][Hyp][Hyp]S[dC]V[Nle]W[Orn]-NH2; disulfide 3-9), in data set [2], the half-life at 2 mg/mL was 84 h.

In general, half-life refers to the time in which the quantity being followed falls by half.
